# Molecular target: T1, human TGR5 (h-TGR5) (Homo sapiens, UniProt Q8TDU6)
# T1 construct: expressed in transfected cells
# T1 sequence (Q8TDU6 1-330): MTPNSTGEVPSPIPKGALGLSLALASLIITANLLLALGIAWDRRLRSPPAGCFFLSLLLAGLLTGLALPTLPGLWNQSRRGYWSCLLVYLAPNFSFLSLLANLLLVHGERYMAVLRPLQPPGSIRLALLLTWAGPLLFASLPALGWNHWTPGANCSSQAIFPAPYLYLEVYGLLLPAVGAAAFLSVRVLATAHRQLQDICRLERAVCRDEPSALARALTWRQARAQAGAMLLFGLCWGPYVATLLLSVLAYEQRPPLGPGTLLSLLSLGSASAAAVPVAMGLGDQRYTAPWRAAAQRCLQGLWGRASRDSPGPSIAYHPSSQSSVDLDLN
# Assay: TGR5/CRE-Luciferiase Assay (HEK 293 hTGR5/CRE-Luc cells)
# Assay type: cell-based
# Conditions: h-TGR5 CRE-Luc EC50, Table 1; read-out: CRE-Luc (EC50)
# Method in brief: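 HEK293 cells stably carrying hTGR5 and a CRE-luciferase reporter were exposed to serially diluted compounds (diluted in DMEM with 5% DMSO) for 6 h. Cells were then lysed in luciferase buffer, luminescence was read, and EC50 values were derived from dose-response curves.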
row,EC50,Compound
1,1 to 10 µM,"CC(C)(c1ccc(Cl)c(Cl)c1)c1cnc(COc2ccc(F)cc2Cl)n1-c1ccc(F)cc1 [2-{[(2-chloro-4-fluorophenyl)oxy]methyl}-5-[1-(3,4-dichlorophenyl)-1-methylethyl]-1-(4-fluorophenyl)-1H-imidazole]"
2,0.1 to 1 µM,"CC(C)(c1ccc(Cl)c(Cl)c1)c1cnc(COc2c(F)cccc2Cl)n1-c1ccc(F)cc1 [2-{[(2-chloro-6-fluorophenyl)oxy]methyl}-5-[1-(3,4-dichlorophenyl)-1-methylethyl]-1-(4-fluorophenyl)-1H-imidazole]"
3,0.1 to 1 µM,CC(C)(c1ccc(Cl)cc1)c1cnc(SCc2c(F)cccc2Cl)n1-c1ccc(F)cc1 [2-{[(2-chloro-6-fluorophenyl)methyl]thio}-5-[1-(4-chlorophenyl)-1-methylethyl]-1-(4-fluorophenyl)-1H-imidazole]
4,0.1 to 1 µM,"CC(C)(c1ccc(Cl)c(Cl)c1)c1cnc(SCc2ccc(F)cc2C(=O)O)n1-c1ccc(F)cc1 [2-[({5-[1-(3,4-dichlorophenyl)-1-methylethyl]-1-(4-fluorophenyl)-1H-imidazol-2-yl}thio)methyl]-5-fluorobenzoic acid]"
5,0.1 to 1 µM,"CC(C)(c1ccc(Cl)c(Cl)c1)c1cnc(SCc2c(F)cccc2Cl)n1CCO [2-(2-{[(2-chloro-6-fluorophenyl)methyl]thio}-5-[1-(3,4-dichlorophenyl)-1-methylethyl]-1H-imidazol-1-yl)ethanol]"
6,0.1 to 1 µM,"CC(C)(c1ccc(Cl)c(Cl)c1)c1cnc(SCc2c(F)cccc2Cl)n1-c1ccc(Cl)cc1F [1-(4-chloro-2-fluorophenyl)-2-{[(2-chloro-6-fluorophenyl)methyl]thio}-5-[1-(3,4-dichlorophenyl)-1-methylethyl]-1H-imidazole]"
7,< 0.1 µM,CC(C)(c1ccc(Cl)c(F)c1)c1cnc(SCc2c(F)cccc2Cl)n1-c1ccc(F)cc1 [5-[1-(4-chloro-3-fluorophenyl)-1-methylethyl]-2-{[(2-chloro-6-fluorophenyl)methyl]thio}-1-(4-fluorophenyl)-1H-imidazole]
8,< 0.1 µM,"CC(C)(c1ccc(Cl)c(Cl)c1)c1cnc(SCc2c(F)cc(F)cc2F)n1-c1ccc(F)cc1 [5-[1-(3,4-dichlorophenyl)-1-methylethyl]-1-(4-fluorophenyl)-2-{[(2,4,6-trifluorophenyl)methyl]thio}-1H-imidazole]"

# Continued, compound first:
row,Compound,EC50
1,CNS(=O)(=O)c1ccc(C(C)(C)c2cnc(SCc3ccc(F)cc3Cl)n2-c2ccc(F)cc2)cc1 [4-{1-[2-{[(2-chloro-4-fluorophenyl)methyl]thio}-1-(4-fluorophenyl)-1H-imidazol-5-yl]-1-methylethyl}-N-methylbenzenesulfonamide],0.1 to 1 µM
2,2-chloro-5-{1-[2-{(2-chloro-4- fluorophenyl)methyl]thio}-1-(4-fluorophenyl)- 1H-imidazol-5-yl]-1- methylethyl}benzenesulfonamide,0.1 to 1 µM

# Molecular target: T2, h-TGR5 (Homo sapiens, UniProt Q8TDU6)
# T2 construct: expressed in transfected cells
# T2 sequence (Q8TDU6 1-330): T1 sequence (Q8TDU6 1-330)
# Assay: TGR5 cAMP Assay using Cisbio cAMP Dynamic2 htrf kit (hTGR5CRE-luc HEK 293 cells)
# Assay type: cell-based
# Conditions: h-TGR5 cAMP EC50, Table 1; read-out: cAMP (EC50)
# Experimental: Compounds were diluted in DPBS with 5% DMSO (8-point serial dilution by half logs) in a 96-well plate and 1 μL was transferred to a 384-well assay plate in quadruplicate. The d2-cAMP and anti-cAMP Ab-cryptate stock solution were prepared as per the instructions in the Cisbio™ (Bedford, Mass.) kit. […] Cells were adjusted to 0.44×10^6 cells/ml followed by addition of IBMX to a final concentration of 0.5 mM. The cells were then mixed with d2-cAMP solution (7.1 mL cells+100 ul d2-cAMP) and 4000 cells (9 μL) were transferred to each well of the 384-well assay plate. Cells without d2-cAMP were added to eight wells as a negative control. The plate was covered and incubated at room temp for 30 min. Then 10 μL of Ab-cryptate solution was added to each well of the assay plate and incubated for 1 hr. The plate was read on an EnVision™ plate reader (Perkin-Elmer, Waltham, Mass.) and the DeltaF value was calculated as per the instructions in the Cisbio™ kit.
# In the following tables, EC50 values determined according to the TGR5 cAMP Assay described herein (cAMP); EC50 values determined according to the TGR5/CRE-Luciferiase Assay described herein (CRE-Luc). […] The following compounds in Tables 1 and 2 were made by using procedures described in the above Schemes and Examples, and, where applicable, by making any necessary substitutions of known materials that one skilled in the art would ordinarily understand how to do.
row,EC50,Compound
1,0.1 to 1 µM,COc1cc(C(C)(C)c2cnc(SCc3ccc(S(=O)(=O)NC(=O)NCC(=O)O)cc3Cl)n2-c2ccc(F)cc2)ccc1Cl [N-[({[3-chloro-4-({[5-{1-[4-chloro-3-(methyloxy)phenyl]-1-methylethyl}-1-(4-fluorophenyl)-1H-imidazol-2-yl]thio}methyl)phenyl]sulfonyl}amino)carbonyl]glycine]
2,1 to 10 µM,"COc1cc(C(C)(C)c2cnc(SCc3ccc(S(=O)(=O)NC(=O)NN4CCCC4)cc3Cl)n2-c2ncc(F)cc2F)ccc1Cl [3-chloro-4-({[5-{1-[4-chloro-3-(methyloxy)phenyl]-1-methylethyl}-1-(3,5-difluoropyridin-2-yl)-1H-imidazol-2-yl]thio}methyl)-N-[(pyrrolidin-1-ylamino)carbonyl]benzenesulfonamide]"
3,1 to 10 µM,COc1cc(C(C)(C)c2cnc(SCc3ccc(S(=O)(=O)NC(=O)NN4CCCC4)cc3Cl)n2-c2cc(C)c(Cl)cn2)ccc1Cl [3-chloro-4-({[5-{1-[4-chloro-3-(methyloxy)phenyl]-1-methylethyl}-1-(5-chloro-4-methylpyridin-2-yl)-1H-imidazol-2-yl]thio}methyl)-N-[(pyrrolidin-1-ylamino)carbonyl]benzenesulfonamide]

# Further lines, the compound ahead of its results:
row,Compound,EC50
1,"CC(C)(c1ccc(S(C)(=O)=O)cc1)c1cnc(SCc2ccc(S(=O)(=O)NC(=O)NN3CCCC3)cc2Cl)n1-c1ccc(F)c(F)c1 [3-chloro-4-({[1-(3,4-difluorophenyl)-5-{1-methyl-1-[4-(methylsulfonyl)phenyl]ethyl}-1H-imidazol-2-yl]thio}methyl)-N-[(pyrrolidin-1-ylamino)carbonyl]benzenesulfonamide]",1 to 10 µM
2,CNS(=O)(=O)c1ccc(C(C)(C)c2cnc(SCc3ccc(S(=O)(=O)NC(=O)NN4CCCC4)cc3Cl)n2-c2ccc(F)cc2)cc1OC [4-{1-[2-({[2-chloro-4-({[(pyrrolidin-1-ylamino)carbonyl]amino}sulfonyl)phenyl]methyl}thio)-1-(4-fluorophenyl)-1H-imidazol-5-yl]-1-methylethyl}-N-methyl-2-(methyloxy)benzenesulfonamide],0.1 to 1 µM
3,CC(C)(c1ccc(S(C)(=O)=O)cc1)c1cnc(SCc2ccc(Cl)c(-c3nnn[nH]3)c2)n1-c1ccc(F)cc1 [5-[2-chloro-5-({[1-(4-fluorophenyl)-5-{1-methyl-1-[4-(methylsulfonyl)phenyl]ethyl}-1H-imidazol-2-yl]thio}methyl)phenyl]-1H-tetrazole],1 to 10 µM
4,COc1cc(C(C)(C)c2cnc(SCc3ccc(S(=O)(=O)NC(=O)NN4CCCC4)cc3Cl)n2-c2ccc(F)cc2)ccc1S(C)(=O)=O [3-chloro-4-({[1-(4-fluorophenyl)-5-{1-methyl-1-[3-(methyloxy)-4-(methylsulfonyl)phenyl]ethyl}-1H-imidazol-2-yl]thio}methyl)-N-[(pyrrolidin-1-ylamino)carbonyl]benzenesulfonamide],0.1 to 1 µM
5,"CC(C)(c1ccc(S(C)(=O)=O)cc1)c1cnc(SCc2ccc(Cl)c(-c3nnn[nH]3)c2)n1-c1ccc(F)c(F)c1 [5-[2-chloro-5-({[1-(3,4-difluorophenyl)-5-{1-methyl-1-[4-(methylsulfonyl)phenyl]ethyl}-1H-imidazol-2-yl]thio}methyl)phenyl]-1H-tetrazole]",1 to 10 µM
6,CNS(=O)(=O)c1ccc(C(C)(C)c2cnc(SCc3ccc(S(=O)(=O)NC(=O)NN4CCCC4)cc3Cl)n2-c2ccc(F)cc2)cc1Cl [2-chloro-4-{1-[2-({[2-chloro-4-({[(pyrrolidin-1-ylamino)carbonyl]amino}sulfonyl)phenyl]methyl}thio)-1-(4-fluorophenyl)-1H-imidazol-5-yl]-1-methylethyl}-N-methylbenzenesulfonamide],1 to 10 µM
7,"CC(C)(c1ccc(S(N)(=O)=O)cc1)c1cnc(SCc2ccc(S(=O)(=O)NC(=O)NN3CCOCC3)cc2Cl)n1-c1ccc(F)c(F)c1 [4-({[5-{1-[4-(aminosulfonyl)phenyl]-1-methylethyl}-1-(3,4-difluorophenyl)-1H-imidazol-2-yl]thio}methyl)-3-chloro-N-[(morpholin-4-ylamino)carbonyl]benzenesulfonamide]",1 to 10 µM
8,CC(C)(c1ccc(S(N)(=O)=O)cc1)c1cnc(SCc2ccc(S(=O)(=O)NC(=O)NN3CCOCC3)cc2Cl)n1-c1ccc(F)c(Cl)c1 [4-({[5-{1-[4-(aminosulfonyl)phenyl]-1-methylethyl}-1-(3-chloro-4-fluorophenyl)-1H-imidazol-2-yl]thio}methyl)-3-chloro-N-[(morpholin-4-ylamino)carbonyl]benzenesulfonamide],1 to 10 µM
9,Cc1cc(-n2c(C(C)(C)c3ccc(F)cc3)cnc2SCc2ccc(S(=O)(=O)NC(=O)NN3CCCC3)cc2Cl)ccc1F [3-chloro-4-[({1-(4-fluoro-3-methylphenyl)-5-[1-(4-fluorophenyl)-1-methylethyl]-1H-imidazol-2-yl}thio)methyl]-N-[(pyrrolidin-1-ylamino)carbonyl]benzenesulfonamide],0.1 to 1 µM
10,COCC1CCCN1NC(=O)NS(=O)(=O)c1ccc(CSc2ncc(C(C)(C)c3ccc(Cl)c(OC)c3)n2-c2ccc(F)cc2)c(Cl)c1 (stereo in doubt) [3-chloro-4-({[5-{1-[4-chloro-3-(methyloxy)phenyl]-1-methylethyl}-1-(4-fluorophenyl)-1H-imidazol-2-yl]thio}methyl)-N-[({(2S)-2-[(methyloxy)methyl]pyrrolidin-1-yl}amino)carbonyl]benzenesulfonamide],0.1 to 1 µM
